From ChEMBL document CHEMBL1201862, “PubChem BioAssay data set” (2004)
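Five concentrations, 48 hours, 96-well plates. Here, GI50 denotes the concentration required for 50% inhibition of growth.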 Activity calls are given as the source filed them. Rule as the data show it: active = GI50 up to about 1.1 µM and inactive = higher.

What was measured:
Assay in all cases: NCI anticancer screen, dose series, 48 h
[1] = test system: 786-0
[2] = test system: A498
[3] = test system: A549
[4] = test system: ACHN
[5] = test system: BT-549
[6] = test system: CAKI-1
[7] = test system: CCRF-CEM
[8] = test system: COLO 205
[9] = test system: DLD-1
[10] = test system: DMS-114
[11] = test system: DU-145
[12] = test system: EKVX
[13] = test system: HCC 2998
[14] = test system: HCT-116
[15] = test system: HCT-15
[16] = test system: HL-60
[17] = test system: HOP-62
[18] = test system: HOP-92
[19] = test system: HT-29
[20] = test system: Hs-578T
[21] = test system: IGROV-1
[22] = test system: K562
[23] = test system: KM-20L2
[24] = test system: KM12
[25] = test system: LOX IMVI
[26] = test system: LXFL 529
[27] = test system: M14
[28] = test system: M19-MEL
[29] = test system: MCF7
[30] = test system: MDA-MB-231
[31] = test system: MDA-MB-435
[32] = test system: MDA-N
[33] = test system: MOLT-4
[34] = test system: Malme-3M
[35] = test system: NCI-H226
[36] = test system: NCI-H23
[37] = test system: NCI-H460
[38] = test system: NCI-H522
[39] = test system: NCI/ADR-RES
[40] = test system: OVCAR-3
[41] = test system: OVCAR-4
[42] = test system: OVCAR-5
[43] = test system: OVCAR-8
[44] = test system: PC-3
[45] = test system: RPMI-8226
[46] = test system: RXF 393
[47] = test system: RXF 631
[48] = test system: SF-268
[49] = test system: SF-295
[50] = test system: SF-539
[51] = test system: SK-MEL-28
[52] = test system: SK-MEL-2
[53] = test system: SK-MEL-5
[54] = test system: SK-OV-3
[55] = test system: SN12C
[56] = test system: SNB-19
[57] = test system: SNB-75
[58] = test system: SNB-78
[59] = test system: SR
[60] = test system: SW-620
[61] = test system: T47D
[62] = test system: TK-10
[63] = test system: U-251
[64] = test system: UACC-257
[65] = test system: UACC-62
[66] = test system: UO-31
[67] = test system: XF498
[68] = test system: DMS-273

With `Nc1ccc(C(=O)N/C(=C\c2cccc([N+](=O)[O-])c2)c2nc3c(O)nc(S)nc3[nH]2)cc1` the GI50 [1] was 24.5 µM (inactive), the GI50 [2] was 65.8 µM (inactive) and the GI50 [3] was 74.3 µM (inactive). For the same compound, the GI50 [4] was > 76.2 µM (inactive), the GI50 [5] was > 100 µM (inactive) and the GI50 [6] was > 100 µM (inactive). For the same compound, the GI50 [7] was > 100 µM (inactive), the GI50 [8] was > 100 µM (inactive) and the GI50 [9] was > 100 µM (inactive). For the same compound, the GI50 [10] was > 86.3 µM (inactive), the GI50 [11] was > 100 µM (inactive) and the GI50 [12] was > 84.9 µM (inactive). The GI50 [13] was > 100 µM (inactive), the GI50 [14] was 81.3 µM (inactive) and the GI50 [15] was greater than 100 µM. For the same compound, the GI50 [16] was > 100 µM (inactive), the GI50 [17] was 17.2 µM (inactive) and the GI50 [18] was 20.9 µM (inactive). The GI50 [19] was > 100 µM (inactive), the GI50 [20] was 29.9 µM (inactive) and the GI50 [21] was 55.1 µM (inactive). For the same compound, the GI50 [22] was > 100 µM (inactive), the GI50 [23] was > 100 µM (inactive) and the GI50 [24] was > 100 µM (inactive). The GI50 [25] was > 92.7 µM (inactive), the GI50 [26] was > 57.7 µM (inactive) and the GI50 [27] was > 100 µM (inactive). The GI50 [28] was > 100 µM (inactive), the GI50 [29] was > 93.8 µM (inactive) and the GI50 [30] was > 53 µM (inactive). The GI50 [31] was > 100 µM (inactive), the GI50 [32] was > 100 µM (inactive) and the GI50 [33] was > 56.2 µM (inactive). The GI50 [34] was > 100 µM (inactive), the GI50 [35] was > 51.8 µM (inactive) and the GI50 [36] was > 100 µM (inactive). For the same compound, the GI50 [37] was > 100 µM (inactive), the GI50 [38] was > 100 µM (inactive) and the GI50 [39] was > 100 µM (inactive). For the same compound, the GI50 [40] was > 100 µM (inactive), the GI50 [41] was > 100 µM (inactive) and the GI50 [42] was > 100 µM (inactive). For the same compound, the GI50 [43] was 31 µM (inactive), the GI50 [44] was > 100 µM (inactive) and the GI50 [45] was > 100 µM (inactive). For the same compound, the GI50 [46] was 27.4 µM (inactive), the GI50 [47] was 37.2 µM (inactive) and the GI50 [48] was 25.9 µM (inactive). For the same compound, the GI50 [49] was 37.3 µM (inactive), the GI50 [50] was 18.5 µM (inactive) and the GI50 [51] was > 100 µM (inactive). For the same compound, the GI50 [52] was 53.7 µM (inactive), the GI50 [53] was > 100 µM (inactive) and the GI50 [54] was 22.8 µM (inactive). For the same compound, the GI50 [55] was > 88.7 µM (inactive), the GI50 [56] was 42 µM (inactive) and the GI50 [57] was 6.61 µM (inactive). The GI50 [58] was 39.3 µM (inactive), the GI50 [59] was > 100 µM (inactive) and the GI50 [60] was > 100 µM (inactive). For the same compound, the GI50 [61] was 44.2 µM (inactive), the GI50 [62] was > 79.4 µM (inactive) and the GI50 [63] was 42.7 µM (inactive). The GI50 [64] was > 100 µM (inactive), the GI50 [65] was 41.9 µM (inactive) and the GI50 [66] was 30.3 µM (inactive). For the same compound, the GI50 [67] was 16.9 µM (inactive).
For `O=C(C=C1SCCS1)/C=C\c1ccc(Cl)cc1`, the GI50 [1] was > 100 µM (inactive), the GI50 [2] was > 100 µM (inactive) and the GI50 [3] was > 100 µM (inactive). For the same compound, the GI50 [6] was > 100 µM (inactive), the GI50 [7] was 51.3 µM (inactive) and the GI50 [8] was > 100 µM (inactive). For the same compound, the GI50 [9] was > 100 µM (inactive), the GI50 [68] was 99.3 µM (inactive) and the GI50 [12] was > 100 µM (inactive). The GI50 [13] was 26.4 µM (inactive), the GI50 [14] was > 100 µM (inactive) and the GI50 [16] was 56.9 µM (inactive). For the same compound, the GI50 [17] was > 100 µM (inactive), the GI50 [18] was > 100 µM (inactive) and the GI50 [19] was 41.4 µM (inactive). The GI50 [21] was > 100 µM (inactive), the GI50 [22] was 49.5 µM (inactive) and the GI50 [24] was 87.1 µM (inactive). The GI50 [25] was 53.8 µM (inactive), the GI50 [26] was 69.7 µM (inactive) and the GI50 [27] was > 100 µM (inactive). The GI50 [28] was > 100 µM (inactive), the GI50 [33] was > 100 µM (inactive) and the GI50 [34] was > 100 µM (inactive). The GI50 [35] was 83.2 µM (inactive), the GI50 [36] was > 100 µM (inactive) and the GI50 [38] was > 100 µM (inactive). The GI50 [40] was > 100 µM (inactive), the GI50 [41] was > 100 µM (inactive) and the GI50 [43] was > 100 µM (inactive). For the same compound, the GI50 [45] was 31.5 µM (inactive), the GI50 [47] was > 100 µM (inactive) and the GI50 [48] was > 100 µM (inactive). The GI50 [49] was > 100 µM (inactive), the GI50 [50] was > 100 µM (inactive) and the GI50 [51] was > 100 µM (inactive). For the same compound, the GI50 [52] was > 100 µM (inactive), the GI50 [53] was > 100 µM (inactive) and the GI50 [54] was > 100 µM (inactive). For the same compound, the GI50 [55] was > 100 µM (inactive), the GI50 [56] was > 100 µM (inactive) and the GI50 [57] was > 100 µM (inactive). For the same compound, the GI50 [58] was > 100 µM (inactive), the GI50 [59] was 85.7 µM (inactive) and the GI50 [60] was > 100 µM (inactive). For the same compound, the GI50 [62] was 97.5 µM (inactive), the GI50 [64] was 80.2 µM (inactive) and the GI50 [65] was 99.8 µM (inactive). For the same compound, the GI50 [66] was > 100 µM (inactive) and the GI50 [67] was 73.8 µM (inactive).
